Measurements from ChEMBL document CHEMBL4270577, “Synthesis, anticancer activity and molecular modeling studies of 1,2,4-triazole derivatives as EGFR inhibitors” (Eur J Med Chem, 2018).

Key:
SK-OV-3 = assay: Cytotoxicity against human SKOV3 cells incubated for 48 hrs by sulforhodamine B assay; assay type: functional; details: SK-OV-3, 48 h
Tubulin (Homo sapiens) = Tubulin (Homo sapiens) (UniProt P68371+Q9H4B7+P0DPH7+P68366+Q13509+Q71U36+P04350+Q3ZCM7+P07437+P68363+Q9BQE3+Q6PEY2+Q13885+Q9BVA1+Q9BUF5); assay: Inhibition of tubulin (unknown origin) polymerization assessed as polymerized tubulin level at 5 to 25 uM by fluorescence assay; assay type: protein-complex assay
M14 = assay: Cytotoxicity against human M14 cells incubated for 48 hrs by sulforhodamine B assay; assay type: functional; details: M14, 48 h
UACC-257 = assay: Cytotoxicity against human UACC257 cells incubated for 48 hrs by sulforhodamine B assay; assay type: functional; details: UACC-257, 48 h
NCI-H460 = assay: Cytotoxicity against human NCI-H460 cells incubated for 48 hrs by sulforhodamine B assay; assay type: functional; details: NCI-H460, 48 h
NCI-H522 = assay: Cytotoxicity against human NCI-H522 cells incubated for 48 hrs by sulforhodamine B assay; assay type: functional; details: NCI-H522, 48 h
Malme-3M = assay: Cytotoxicity against human MALME-3M cells incubated for 48 hrs by sulforhodamine B assay; assay type: functional
U-251 = assay: Cytotoxicity against human U251 cells incubated for 48 hrs by sulforhodamine B assay; assay type: functional; details: U-251, 48 h
BT-549 = assay: Cytotoxicity against human BT549 cells incubated for 48 hrs by sulforhodamine B assay; assay type: functional; details: BT-549, 48 h
A549 [1] = assay: Cell cycle arrest in human A549 cells assessed as accumulation at G2 phase at 1.4 uM after 24 hrs by propidium iodide staining based flow cytometry (reference value: 4.19%); assay type: functional
A549 [2] = assay: Induction of apoptosis in human A549 cells assessed as necrotic cells at 1.4 uM after 24 hrs by Annexin V/propidium iodide staining based flow cytometric analysis (reference value: 0.09%); assay type: functional
SF-295 = assay: Cytotoxicity against human SF295 cells incubated for 48 hrs by sulforhodamine B assay; assay type: functional; details: SF-295, 48 h
SF-539 = assay: Cytotoxicity against human SF539 cells incubated for 48 hrs by sulforhodamine B assay; assay type: functional; details: SF-539, 48 h
CAKI-1 = assay: Cytotoxicity against human Caki1 cells incubated for 48 hrs by sulforhodamine B assay; assay type: functional; details: CAKI-1, 48 h
K562 = assay: Cytotoxicity against human K562 cells incubated for 48 hrs by sulforhodamine B assay; assay type: functional; details: K562, 48 h
OVCAR-4 = assay: Cytotoxicity against human OVCAR4 cells incubated for 48 hrs by sulforhodamine B assay; assay type: functional; details: OVCAR-4, 48 h
HOP-62 = assay: Cytotoxicity against human HOP62 cells incubated for 48 hrs by sulforhodamine B assay; assay type: functional; details: HOP-62, 48 h
UO-31 = assay: Cytotoxicity against human UO31 cells incubated for 48 hrs by sulforhodamine B assay; assay type: functional; details: UO-31, 48 h
HT-29 = assay: Cytotoxicity against human HT-29 cells incubated for 48 hrs by sulforhodamine B assay; assay type: functional; details: HT-29, 48 h
SK-MEL-2 = assay: Cytotoxicity against human SK-MEL-2 cells incubated for 48 hrs by sulforhodamine B assay; assay type: functional; details: SK-MEL-2, 48 h
NCI-H226 = assay: Cytotoxicity against human NCI-H226 cells incubated for 48 hrs by sulforhodamine B assay; assay type: functional; details: NCI-H226, 48 h
Hs-578T = assay: Cytotoxicity against human Hs 578T cells incubated for 48 hrs by sulforhodamine B assay; assay type: functional
COLO 205 = assay: Cytotoxicity against human COLO205 cells incubated for 48 hrs by sulforhodamine B assay; assay type: functional; details: COLO 205, 48 h
UACC-62 = assay: Cytotoxicity against human UACC62 cells incubated for 48 hrs by sulforhodamine B assay; assay type: functional; details: UACC-62, 48 h
OVCAR-3 = assay: Cytotoxicity against human OVCAR3 cells incubated for 48 hrs by sulforhodamine B assay; assay type: functional; details: OVCAR-3, 48 h
HCC 2998 = assay: Cytotoxicity against human HCC2998 cells incubated for 48 hrs by sulforhodamine B assay; assay type: functional; details: HCC 2998, 48 h
MDA-MB-231 = assay: Cytotoxicity against human MDA-MB-231 cells incubated for 48 hrs by sulforhodamine B assay; assay type: functional; details: MDA-MB-231, 48 h
[3] = read-out: LC50 (the source's name)

`COc1ccc(-c2nc3sc(-c4ccc(Cl)cc4)cn3n2)cc1` gave a GI50 (SK-OV-3) of 11.7 µM, a TGI (SK-OV-3) greater than 50 µM and a CC50 (SK-OV-3; [3]) greater than 50 µM. For the same molecule, the Activity (Tubulin (Homo sapiens)) was 1510 a.u, the GI50 (M14) was greater than 50 µM and the TGI (M14) was greater than 50 µM. For the same molecule, the CC50 (M14; [3]) was greater than 50 µM, the GI50 (UACC-257) was greater than 50 µM and the TGI (UACC-257) was greater than 50 µM. For the same molecule, the CC50 (UACC-257; [3]) was greater than 50 µM, the GI50 (NCI-H460) was 1.33 µM and the TGI (NCI-H460) was 4 µM. For the same molecule, the CC50 (NCI-H460; [3]) was 18.9 µM, the GI50 (NCI-H522) was 14.9 µM and the TGI (NCI-H522) was greater than 50 µM. For the same molecule, the CC50 (NCI-H522; [3]) was greater than 50 µM, the GI50 (Malme-3M) was 2.71 µM and the TGI (Malme-3M) was greater than 50 µM. For the same molecule, the CC50 (Malme-3M; [3]) was greater than 50 µM, the GI50 (U-251) was 1.03 µM and the TGI (U-251) was 2.29 µM. The CC50 (U-251; [3]) was 5.53 µM, the GI50 (BT-549) was 43.2 µM and the TGI (BT-549) was greater than 50 µM. It also gave a CC50 (BT-549; [3]) greater than 50 µM, an Activity (A549 [1]) of 14.36% and an Activity (A549 [2]) of 1.34%. For the same molecule, the GI50 (SF-295) was 2.81 µM, the TGI (SF-295) was 31.8 µM and the CC50 (SF-295; [3]) was greater than 50 µM. It also gave a GI50 (SF-539) of 1.85 µM, a TGI (SF-539) of 21.5 µM and a CC50 (SF-539; [3]) greater than 50 µM. The GI50 (CAKI-1) was 1.79 µM, the TGI (CAKI-1) was 8.92 µM and the CC50 (CAKI-1; [3]) was 48.9 µM. The GI50 (K562) was 29.4 µM, the TGI (K562) was greater than 50 µM and the CC50 (K562; [3]) was greater than 50 µM. It also gave a GI50 (OVCAR-4) of 0.766 µM, a TGI (OVCAR-4) of 1.63 µM and a CC50 (OVCAR-4; [3]) of 3.45 µM. It also gave a GI50 (HOP-62) of 2.36 µM, a TGI (HOP-62) greater than 50 µM and a CC50 (HOP-62; [3]) greater than 50 µM. It also gave a GI50 (UO-31) of 1.19 µM, a TGI (UO-31) of 4.51 µM and a CC50 (UO-31; [3]) of 30.6 µM. The GI50 (HT-29) was 2.96 µM, the TGI (HT-29) was greater than 50 µM and the CC50 (HT-29; [3]) was greater than 50 µM. The GI50 (SK-MEL-2) was greater than 50 µM, the TGI (SK-MEL-2) was greater than 50 µM and the CC50 (SK-MEL-2; [3]) was greater than 50 µM. For the same molecule, the GI50 (NCI-H226) was 11.1 µM, the TGI (NCI-H226) was greater than 50 µM and the CC50 (NCI-H226; [3]) was greater than 50 µM. It also gave a GI50 (Hs-578T) of 2.31 µM, a TGI (Hs-578T) greater than 50 µM and a CC50 (Hs-578T; [3]) greater than 50 µM. It also gave a GI50 (COLO 205) of 2.56 µM, a TGI (COLO 205) greater than 50 µM and a CC50 (COLO 205; [3]) greater than 50 µM. For the same molecule, the GI50 (UACC-62) was 8.24 µM, the TGI (UACC-62) was greater than 50 µM and the CC50 (UACC-62; [3]) was greater than 50 µM. The GI50 (OVCAR-3) was 1.72 µM, the TGI (OVCAR-3) was 7.2 µM and the CC50 (OVCAR-3; [3]) was greater than 50 µM. For the same molecule, the GI50 (HCC 2998) was greater than 50 µM, the TGI (HCC 2998) was greater than 50 µM and the CC50 (HCC 2998; [3]) was 39.4 µM. The GI50 (MDA-MB-231) was 2.06 µM, the TGI (MDA-MB-231) was 16.7 µM and the CC50 (MDA-MB-231; [3]) was greater than 50 µM.
